Literature values in patent US5320960A, “Method of preparing solution enriched in xylanase using low molecular weight alcohol, organic salt and inorganic salt” (Genencor International, Inc., priority 1992, dated 1994).

Target: β-Glucosidase (BG) components of fungal cellulase
Settings: competitive inhibition; read-out: Ki (glucose)

Question: With OC[C@H]1OC(O)[C@H](O)[C@@H](O)[C@@H]1O (stereo partly shown) [glucose] as the molecule, how does the Ki read?
Answer: ~1 mM
